Values quoted from earlier work in patent publication US6475478B2, “Adsorbent, adsorbing and removing process and adsorber for endogenous cannabinoid” (Kaneka Corporation, priority 2000, dated 2002).

Details: octanol-water system; compound fixed on the carrier

Structure (SMILES) | log P
CCCCCCCCCCN [n-decyl amine] | 4.07
CCCCN [n-butyl amine] | 0.97
